Measured values taken from the supplement of paper PMC4862054.

How the values were obtained:
Conditions in all cases: incubation time: 72 h
[1] = test system: CAL-85-1; assay: normalised response (% of control), CellTiter-Glo; higher = more viable cells (100 = DMSO, 0 = benzethonium chloride kill control)
Method: (§1)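 DSRT, 72 h incubation, CellTox Green / CellTiter-Glo readout. Signal is normalised to DMSO and benzethonium chloride controls. Value is the normalised response at dose 3.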

[2] = test system: BT-474; assay: as above
Method: as §1

[3] = test system: MDA-MB-453; assay: as above
Method: as §1

[4] = test system: Hs578T; assay: as above
Method: as §1

[5] = test system: MCF-10A; assay: as above
Method: as §1

[6] = test system: CAL-51; assay: as above
Method: as §1

[7] = test system: CAL-148; assay: as above
Method: as §1

[8] = test system: MDA-MB-231; assay: as above
Method: as §1

[9] = test system: BT-549; assay: as above
Method: as §1

[10] = test system: DU-4475; assay: as above
Method: as §1

[11] = test system: CAL-120; assay: as above
Method: as §1

[12] = test system: MDA-MB-468; assay: as above
Method: as §1

[13] = test system: HDQ-P1; assay: as above
Method: as §1

[14] = test system: MDA-MB-436; assay: as above
Method: as §1

[15] = test system: HCC1599; assay: as above
Method: as §1

[16] = test system: SK-BR-3; assay: as above
Method: as §1

[17] = test system: HCC1143; assay: as above
Method: as §1

[18] = test system: HCC1937; assay: as above
Method: as §1

[19] = test system: MFM-223; assay: as above
Method: as §1

[20] = test system: CAL-85-1; assay: normalised response (% of control), CellTox Green; higher = less cell death (100 = DMSO, 0 = benzethonium chloride kill control)
In short: (§2)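 Breast cancer cell lines in 20 µl suspension were added to 384-well plates containing compound at 5 concentrations, spaced in 10-fold steps across a 10,000-fold range chosen for each compound, and incubated for 72 h. CellTox Green fluorescence was read at 485/520 nm, followed by CellTiter-Glo luminescence after 10 min at room temperature. Signals on each plate were normalised so that 0.1 % DMSO equals 100 and a positive kill control equals 0. Every value in the table is the normalised signal at one concentration of the series.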

[21] = test system: BT-474; assay: as above
In short: as §2

[22] = test system: MDA-MB-453; assay: as above
In short: as §2

[23] = test system: MCF-10A; assay: as above
In short: as §2

[24] = test system: CAL-51; assay: as above
In short: as §2

[25] = test system: CAL-148; assay: as above
In short: as §2

[26] = test system: MDA-MB-231; assay: as above
In short: as §2

[27] = test system: BT-549; assay: as above
In short: as §2

[28] = test system: DU-4475; assay: as above
In short: as §2

[29] = test system: CAL-120; assay: as above
In short: as §2

[30] = test system: MDA-MB-468; assay: as above
In short: as §2

[31] = test system: HDQ-P1; assay: as above
In short: as §2

[32] = test system: MDA-MB-436; assay: as above
In short: as §2

[33] = test system: HCC1599; assay: as above
In short: as §2

[34] = test system: HCC1143; assay: as above
In short: as §2

[35] = test system: MFM-223; assay: as above
In short: as §2

[36] = test system: Hs578T; assay: as above
In short: as §2

[37] = test system: HCC1937; assay: as above
In short: as §2

| Compound | normalised response [1] | normalised response [2] | normalised response [3] | normalised response [4] | normalised response [5] | normalised response [6] | normalised response [7] | normalised response [8] | normalised response [9] | normalised response [10] | normalised response [11] | normalised response [12] | normalised response [13] | normalised response [14] | normalised response [15] | normalised response [16] | normalised response [17] | normalised response [18] | normalised response [19] | normalised response [20] | normalised response [21] | normalised response [22] | normalised response [23] | normalised response [24] | normalised response [25] | normalised response [26] | normalised response [27] | normalised response [28] | normalised response [29] | normalised response [30] | normalised response [31] | normalised response [32] | normalised response [33] | normalised response [34] | normalised response [35] | normalised response [36] | normalised response [37] |
| --- | --- | --- | --- | --- | --- | --- | --- | --- | --- | --- | --- | --- | --- | --- | --- | --- | --- | --- | --- | --- | --- | --- | --- | --- | --- | --- | --- | --- | --- | --- | --- | --- | --- | --- | --- | --- | --- |
| COc1cc2ncnc(Nc3ccc(F)c(Cl)c3)c2cc1NC(=O)/C=C/CN1CCCCC1 [Dacomitinib] (10 nM) | 84.2% | 100% | 96% | 108% | 56.4% | 91% | 103% | 106% | 105% | 104% | 100% | 78.8% | 77% | 100% | 99.7% | 77.3% | 102% | 98.1% | 103% | 90.5% | 98.8% | 98% | 108% | 105% | 101% | 103% | 102% | 104% | 105% | 68.7% | 50% | 103% | 88.8% | 80% | 100% |  |  |
| CC(C)Cn1cnc2c(N)nc3ccccc3c21 [Imiquimod] (25 nM) | 99.9% | 104% | 97.4% | 107% | 103% | 81.8% | 110% | 102% | 103% | 107% | 101% | 104% | 101% | 104% | 101% | 106% | 107% | 94.8% | 107% | 98.1% | 102% | 61.1% | 91.9% | 90.4% |  | 100% | 87.2% | 102% | 96.9% |  | 74.9% | 101% | 103% | 81.4% | 105% | 51.6% | 102% |
| Cc1ccc(C(=O)Nc2ccc(CN3CCN(C)CC3)c(C(F)(F)F)c2)cc1C#Cc1cnc2cccnn12 [Ponatinib] (10 nM) | 99.5% | 105% | 105% | 99.1% | 111% | 106% | 106% | 99.6% | 104% | 101% | 106% | 106% | 105% | 109% | 89.4% | 106% | 99.5% | 94.3% | 88.4% | 103% | 100% | 105% | 99.1% | 99.5% | 95.3% |  | 94.4% | 101% | 102% | 93.2% |  | 73.4% | 101% | 69.8% | 77.6% |  |  |
| CNCc1ccc(-c2[nH]c3cc(F)cc4c3c2CCNC4=O)cc1 [Rucaparib] (100 nM) | 99.1% | 93% | 91.3% | 99.8% | 93.6% | 84.1% | 86% | 99.2% | 106% | 97.2% | 92.8% | 104% | 98.3% | 90.6% | 109% | 90% | 99.3% | 99.2% | 88.8% | 97.5% | 95.5% | 102% |  | 91.6% | 97.4% | 87% | 71.6% | 95.7% | 98.9% |  | 104% | 83.3% | 94.4% | 104% | 73.3% | 108% |  |
| Clc1ccc(Nc2nnc(Cc3ccncc3)c3ccccc23)cc1 [Vatalanib] (100 nM) | 103% | 103% | 106% | 106% | 111% | 89.3% | 112% | 105% | 109% | 105% | 99.1% | 108% | 101% | 111% | 109% | 102% | 106% | 103% | 107% | 77.6% | 99.6% | 64% | 103% | 110% | 107% | 102% | 105% | 101% | 102% |  | 109% |  | 106% | 117% | 103% | 111% | 115% |
